pIC50: −log10 of the molar value. Like-named read-outs stand apart in the source and are kept apart here.

In assay [1] the test system is RT4: human urinary bladder transitional cell papilloma. Nature of the assay: Cell based assay, cytotoxicity in RT4 papilloma cells (selectivity). Conditions: Homo sapiens, RT-4; RT4 cells.
A further assay has as its system renal cancer cell lines. As to the kind of experiment: Cell based assay, cell viability (CellTiter-Glo), renal cancer cell lines. Conditions: Homo sapiens; ACHN cells. An outline of the steps:
(§1)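 Commercial tumour lines, detached with trypsin-EDTA, were seeded and incubated 24 h. They were then dosed to 0–2 μM final, grown 72 h, and assessed for viability using CellTiter-Glo.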
(In general: ATP-based viability assays read luminescence as a measure of living cells.)

Assay [2] concerns ovarian cancer cell lines. As to the kind of experiment: Cell based assay, cell viability (CellTiter-Glo), ovarian cancer cell lines. Conditions: Homo sapiens; OVCAR-3 cells. An outline of the steps: as §1
Another assay deals with neuroblastoma cell lines. As to the kind of experiment: Cell based assay, cell viability (CellTiter-Glo), neuroblastoma cell lines. Conditions: Homo sapiens; SH-SY5Y cell line. An outline of the steps: as §1
The subject of a further assay is liver cancer cell lines. Nature of the assay: Cell based assay, cell viability (CellTiter-Glo), liver cancer cell lines. Conditions: Homo sapiens, SK-HEP1; SK-HEP-1 cell line. In a few lines: as §1
The subject of assay [3] is bladder cancer cell lines. As to the kind of experiment: Cell based assay, cell viability (CellTiter-Glo), bladder cancer cell lines. An outline of the steps: as §1
Where [4] appears, read: 253J cells, 72 hours treatment, 0 to 2 μM, CellTiter-Glo, read-out: IC50, bladder cancer cell line 253J.
The mark [5] stands for this setting: 5637 cells, 72 hours treatment, 0 to 2 μM, CellTiter-Glo, read-out: IC50, bladder cancer cell line 5637.
[6] abbreviates: Homo sapiens, T-24, T24 cells, 72 hours treatment, 0 to 2 μM, CellTiter-Glo, read-out: IC50, bladder cancer cell line T24.
Where [7] appears, read: Homo sapiens, J82 cells, 72 hours treatment, 0 to 2 μM, CellTiter-Glo, read-out: IC50, bladder cancer cell line J82.

For the compound `CC(=O)c1c([S+]([O-])Cc2ccc(N)nc2)[nH]c2c(Br)ccc(Cl)c2c1=O` (stereo not drawn) [Compound 100, 3-acetyl-2-(((6-aminopyridin-3-yl)methyl)sulfinyl)-8-bromo-5-chloroquinolin-4(1H)-one], the pIC50 (in general, the IC50 on a negative log10 scale, so that one unit is a factor of ten) in assay [1] was less than 5.00; with renal cancer cell lines, less than 5.70; in assay [2], less than 5.70; in the assay with neuroblastoma cell lines, less than 5.70; with liver cancer cell lines it was less than 5.70; in assay [3] (setting [4]) it was less than 5.70. In addition, the pIC50 in assay [3] (setting [5]), in assay [3] (setting [6]) and in assay [3] (setting [7]) was less than 5.70 throughout.
Consider `O=C(c1c([S+]([O-])Cc2ccc(SC(F)(F)F)cc2)[nH]c2c(Br)ccc(Cl)c2c1=O)C1CC1` (stereo not drawn) [Compound 101, 8-bromo-5-chloro-3-(cyclopropanecarbonyl)-2-((4-((trifluoromethyl)thio)benzyl)sulfinyl)quinolin-4(1H)-one], for which the pIC50 is less than 5.00 in assay [1]; less than 5.70 in the assay on renal cancer cell lines; 5.70 in assay [2]; 5.85 in the assay on neuroblastoma cell lines; less than 5.70 with liver cancer cell lines; less than 5.70 in assay [3] (setting [5]). Also, the pIC50 in assay [3] (setting [6]) and in assay [3] (setting [7]) was less than 5.70 in each case.
For `CC(=O)c1c([S+]([O-])Cc2ccc(C(F)(F)F)nc2C)[nH]c2c(Br)ccc(Cl)c2c1=O` (stereo not drawn) [Compound 102, 3-acetyl-8-bromo-5-chloro-2-(((2-methyl-6-(trifluoromethyl)pyridin-3-yl)methyl)sulfinyl)quinolin-4(1H)-one], the pIC50 is less than 5.00 in assay [1]; 5.79 in the assay on renal cancer cell lines; 6.03 in assay [2]; 6.28 with neuroblastoma cell lines; less than 5.70 in the assay with liver cancer cell lines; less than 5.70 in assay [3] (setting [5]). Further, the pIC50 was 5.99 in assay [3] (setting [6]) and less than 5.70 in assay [3] (setting [7]).
`CC(=O)c1c([S+]([O-])Cc2ccc(NS(C)(=O)=O)cc2)[nH]c2c(Br)ccc(Cl)c2c1=O` (stereo not drawn) [Compound 103, N-(4-(((3-acetyl-8-bromo-5-chloro-4-oxo-1,4-dihydroquinolin-2-yl)sulfinyl)methyl)phenyl)methane-sulfonamide]: the pIC50 in assay [1] was less than 5.00; with renal cancer cell lines it was less than 5.70; in assay [2], less than 5.70; in the assay with neuroblastoma cell lines, 6.00; in the assay on liver cancer cell lines, less than 5.70; in assay [3] (setting [4]) it was less than 5.70. The pIC50 in assay [3] (setting [5]), in assay [3] (setting [6]) and in assay [3] (setting [7]) was less than 5.70 in each case.
As to `CC(=O)c1c([S+]([O-])Cc2ccc(Cl)nc2)[nH]c2c(Br)ccc(Cl)c2c1=O` (stereo not drawn) [Compound 104, 3-acetyl-8-bromo-5-chloro-2-(((6-chloropyridin-3-yl)methyl)sulfinyl)quinolin-4(1H)-one], the pIC50 in assay [1] was less than 5.00; in the assay with renal cancer cell lines, 5.92; in assay [2], 6.08; with neuroblastoma cell lines, 6.22; in the assay on liver cancer cell lines, 5.82; in assay [3] (setting [5]), less than 5.70. Moreover, the values for the pIC50 in assay [3] (setting [6]) and in assay [3] (setting [7]) were 5.99 and less than 5.70, respectively.
As for `COCCNc1ccc(C[S+]([O-])c2[nH]c3c(Br)ccc(Cl)c3c(=O)c2C(C)=O)cn1` (stereo not drawn) [Compound 105, 3-acetyl-8-bromo-5-chloro-2-(((6-((2-methoxyethyl)amino)pyridin-3-yl)methyl)sulfinyl)quinolin-4(1H)-one], the negative-log IC50 (pIC50) was less than 5.00 in assay [1]; less than 5.70 in the assay with renal cancer cell lines; less than 5.70 in assay [2]; less than 5.70 with neuroblastoma cell lines; less than 5.70 in the assay with liver cancer cell lines; less than 5.70 in assay [3] (setting [4]). The pIC50 in assay [3] (setting [5]), in assay [3] (setting [6]) and in assay [3] (setting [7]) was less than 5.70 throughout.
In the case of `CC(=O)c1c([S+]([O-])Cc2nonc2C)[nH]c2c(Br)ccc(Cl)c2c1=O` (stereo not drawn) [Compound 106, 3-acetyl-8-bromo-5-chloro-2-(((4-methyl-1,2,5-oxadiazol-3-yl)methyl)sulfinyl)quinolin-4(1H)-one], the pIC50 in assay [1] was less than 5.00; in the assay with renal cancer cell lines, less than 5.70; in assay [2], less than 5.70; in the assay with neuroblastoma cell lines it was 5.89; with liver cancer cell lines, less than 5.70; in assay [3] (setting [4]) it was less than 5.70. The pIC50 in assay [3] (setting [5]), in assay [3] (setting [6]) and in assay [3] (setting [7]) was less than 5.70 each time.
Regarding `CC(=O)c1c([S+]([O-])Cc2cnc3[nH]ccc3c2)[nH]c2c(Br)ccc(Cl)c2c1=O` (stereo not drawn) [Compound 107, 2-(((1H-pyrrolo[2,3-b]pyridin-5-yl)methyl)sulfinyl)-3-acetyl-8-bromo-5-chloroquinolin-4(1H)-one], the pIC50 in assay [1] was less than 5.00; with renal cancer cell lines, less than 5.70; in assay [2], less than 5.70; in the assay on neuroblastoma cell lines it was less than 5.70; with liver cancer cell lines, less than 5.70; in assay [3] (253J cells, 72 hours, cell viability (CellTiter-Glo), read-out: IC50, 253J bladder cancer cell line) it was less than 5.70. For the same compound, the pIC50 in assay [3] (5637 cells, 72 hours, cell viability (CellTiter-Glo), read-out: IC50, 5637 bladder cancer cell line) was less than 5.70; in assay [3] (Homo sapiens, T-24, T24 cells, 72 hours, cell viability (CellTiter-Glo), read-out: IC50, T24 bladder cancer cell line), less than 5.70; in assay [3] (Homo sapiens, J82 cells, 72 hours, cell viability (CellTiter-Glo), read-out: IC50, J82 bladder cancer cell line), less than 5.70.

(Values after patent US11464770B2, “Anticancer pharmaceutical composition” (NATIONAL CANCER CENTER, priority 2016, dated 2022).)
